Measurements as given in patent US20130345392A1, “EDN3-LIKE PEPTIDES AND USES THEREOF” (Pfizer Inc, priority 2011, published 2013).
Entries after “also recorded” stand apart in the source; their conditions may differ. Bridges are numbered along the chain shown (N, C = ends). Where no end group is shown, it is not given here.

Assays:
[1] = target: T1, human endothelin ETA receptor (Homo sapiens, UniProt P25101); test: Radioligand binding, human endothelin ETA receptor in transfected CHO cell membranes; details: tested at a concentration of up to 3 μM (p>0.05)
T1 construct: expressed in transfected cells; host or cells: CHO cells
T1 sequence (P25101 21-427): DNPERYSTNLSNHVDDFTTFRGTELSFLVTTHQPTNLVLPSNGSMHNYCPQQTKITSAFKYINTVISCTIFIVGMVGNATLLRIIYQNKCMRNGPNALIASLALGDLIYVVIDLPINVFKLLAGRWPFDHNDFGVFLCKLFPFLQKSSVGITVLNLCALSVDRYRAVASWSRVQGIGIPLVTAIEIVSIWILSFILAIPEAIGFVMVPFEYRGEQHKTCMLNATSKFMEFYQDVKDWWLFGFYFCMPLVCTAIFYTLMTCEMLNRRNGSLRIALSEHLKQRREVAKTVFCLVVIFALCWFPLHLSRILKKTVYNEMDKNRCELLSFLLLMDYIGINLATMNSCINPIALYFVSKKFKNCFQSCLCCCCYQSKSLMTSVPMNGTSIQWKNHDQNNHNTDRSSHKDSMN
Experimental: (§1) To evaluate the affinity of EDN3 97-140 for the agonist site of the human endothelin ETA receptor, radioligand binding with CHO cells transfected with the ETA receptor was used. […] Following incubation, the samples are filtered rapidly under vacuum through glass fiber filters (GF/B, Packard) presoaked with 0.1% BSA and rinsed several times with an ice-cold buffer containing 50 mM Tris-HCl and 150 mM NaCl using a 96-sample cell harvester (Unifilter, Packard). Filters were dried and then counted for radioactivity in a scintillation counter (Topcount, Packard) using a scintillation cocktail (Microscint 0, Packard). Results are expressed as a percent inhibition of the control radioligand specific binding.

[2] = target: T2, human endothelin ETB receptor (Homo sapiens, UniProt P24530); test: Radioligand binding, human endothelin ETB receptor in transfected CHO cell membranes; details: tested at a concentration of up to 3 μM (p>0.05)
T2 construct: expressed in transfected cells; host or cells: CHO cells
T2 sequence (P24530 27-442): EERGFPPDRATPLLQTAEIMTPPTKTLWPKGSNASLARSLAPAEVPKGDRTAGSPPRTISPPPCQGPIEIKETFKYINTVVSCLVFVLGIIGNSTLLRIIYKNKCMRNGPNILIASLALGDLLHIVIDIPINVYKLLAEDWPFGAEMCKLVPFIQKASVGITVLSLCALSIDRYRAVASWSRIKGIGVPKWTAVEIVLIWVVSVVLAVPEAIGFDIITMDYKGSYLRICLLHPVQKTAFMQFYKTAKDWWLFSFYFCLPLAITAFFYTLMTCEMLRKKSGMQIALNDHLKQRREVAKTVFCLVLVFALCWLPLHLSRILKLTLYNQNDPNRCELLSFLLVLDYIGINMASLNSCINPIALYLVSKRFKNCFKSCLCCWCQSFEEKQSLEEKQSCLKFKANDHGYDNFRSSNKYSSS
Experimental: as §1, with “ETB receptor in transfected CHO cells,” for “ETA receptor,”, “binding” for “binding with CHO cells transfected with the ETA receptor”, “were” for “are”, “The filters” for “Filters”, “dried” for “dried and”, “Packard).” for “Packard). Results are expressed as a percent inhibition of the control radioligand specific binding.”

ob/ob mice = test: Glucose tolerance (IPGTT) in ob/ob mice; format: in vivo, mouse; details: for reduction in glucose: overnight fast, 0.6 mg/kg glucose challenge i.p., mean±SEM n=8
Experimental: DIO mice fed on a high fat diet for 14 weeks and ob/ob mice were purchased from Jackson Labs. Ob/Ob mice and DIO mice used in all studies were used at 7 and 18 weeks old, respectively. After an overnight fast, ob/ob and DIO mice were injected with vehicle (20 mM Na acetate/140 mM NaCl) or EDN3 97-140 (0.1, 1 or 10 mg/kg i.p.) followed by a […] (i.p.) or 2 g/kg (i.p.) D-glucose challenge in ob/ob and DIO mice respectively. Plasma glucose levels were determined from mouse tail vein bleeds at 0, 15, 30, 60, and 120 minutes after compound injection and measured using an automatic glucometer (Alpha-Trak). To determine the acute insulin release, plasma insulin levels were measured by using an ELISA kit with mouse insulin as a standard (Meso Scale Discovery). Results were expressed as percentages of vehicle concentrations and statistical significance determined by 2-way ANOVA repeated measures.

rat perfused colon = test: GLP-1 secretion from rat perfused colon ex vivo
Experimental: Ex vivo rat colon vascular perfusion experiments were performed as previously described (Plaisancié, 1995). Male Sprague-Dawley rats (300 g) were purchased from Charles River and fed ad libitum with Purina Lab Chow #5001 (WF Fisher and Son Inc Sommerville, N.J.). Rats were decapitated and the abdomen was opened with a midline incision. […] The arterial vascular perfusion started immediately with an oxygenated Krebs-Henseleit buffer containing-solution at a rate of 2 mL/minute [solution: Krebs-Henseleit buffer (25.0 mM NaHCO3; 118 mM NaCl; 4.7 mM KCl; 1.2 mM MgSO4; 1.2 mM KH2PO4; 2.5 mM CaCl2) with 3% BSA, 5 mM glucose, MEM essential and nonessential amino acids (pH 7.4)]. The colonal lumen was perfused at the rate of 0.5 mL/minute. The remaining colon and small intestine were removed after the ligation of their respective supplying vessels. After the colon preparation was transferred to a 37° C. tissue bath, the portal effluent was collected as 5 minute fractions. The fraction aliquots were frozen at −20° C. for subsequent determinations of GLP-1. EDN3 97-140 was dissolved at 200 nM in vascular perfusion solution and perfused into the artery after a 30 minute baseline collection. […] The GLP-1 detection assay was carried out by using a commercial kit for active GLP-1 (7-36) amide according to the manufacturer's instructions (Millipore). GLP-1 release data was normalized to % baseline using the average of fractions collected prior to treatment as the baseline value and the peak data following each treatment. The average data across 3 independent experiments was reported comparing EDN3 97-140 versus control (baseline) and forskolin versus control (baseline). Statistical analysis was performed by one sided Satterwaite's test due to unequal variance and the Holm test was applied to account for multiple comparisons.

3T3L1 adipocyte = 3T3L1 adipocyte basal glucose uptake; format: cell-based; details: 10 μM (data not shown)
GLUTag cells = details: GLUTag cells

binding to ETA receptor [1]: failed to bind
binding to ETB receptor [2]: failed to bind
EC50 (GLUTag cells; read-out: EC50, GLP-1 release GLUTag assay, 15 mM glucose): 369 nM
Substance: CTCFTYKDKECVYYCHLDIIWINTPEQTVPYGLSNYRESLRGKR-NH2 (disulfide 1-15, 3-11) [EDN3 97-140]
reduction in glucose (ob/ob mice; 1 mg/kg i.p. single bolus): 35.1±13%
reduction in glucose (ob/ob mice; 10 mg/kg i.p. single bolus): 31.3±6.9%
glucose excursion curve in response to an IPGTT (ob/ob mice; acute peripheral administration 0.1, 1 or 10 mg/kg i.p.): decreased
insulin secretion during IPGTT (ob/ob mice; i.p., trend towards an increase at 30 minutes at 10 mg/kg (p>0.05), 10 mg/kg): not statistically significant; also recorded: no statistically significant effect on insulin
increase in GLP secretion from the rat perfused colon (rat perfused colon; 200 nM perfused via the superior mesenteric artery, vs baseline, p=0.0438): 56±18%
increase in GLP-1 release (rat perfused colon; 200 nM, rat perfused colon): ~10 pM
effect on 3T3L1 adipocyte basal glucose uptake (3T3L1 adipocyte): no effect
stimulated GLP-1 secretion (GLUTag cells; 1 μM, vehicle pre-treatment): 327±59 % of vehicle
GLP-1 secretion from GLUTag cells, result in words (GLUTag cells; endothelin-3 at highest concentration 10 μM): most potent peptide tested
